Measured values from patent publication US5571816A, “Pyrimidines” (Hoechst Aktiengesellschaft, priority 1992, dated 1996).
Counter-ions that a name gives are not always drawn. Like-named read-outs stand apart in the source and are kept apart here.

Columns and labels:
serum lipoproteins = assay: Effect on serum lipoproteins of normolipemic male rats in a subchronic experiment; format: in vivo; conditions: Rattus norvegicus, po, by stomach tube, 7 administrations; for change in vivo at 30 mg/kg: 30 mg/kg/day; for change in vivo at 3 mg/kg: 3 mg/kg/day; for change in vivo at 10 mg/kg: 10 mg/kg/day
Experimental: 3. In vivo, the increased LDL receptor activity in experimental animals is reflected by reduction in the lipoprotein fractions which can be metabolized by the LDL receptor (apoB/E receptor), i.e. a reduction in the LDL and VLDL levels is observed. The following test was carried out:
Effect on serum lipoproteins of normolipemic male rats in a subchronic experiment
Groups of in each case 10 male rats of the HOE: WISKf (SPF 71) strain with an initial weight above 180 g received once a day (in the morning) the test product or the comparison product in 1% aqueous ®Tylose MH 300 solution by stomach tube (0.5 ml/100 g of body weight); the control group in each case received only the vehicle. The last (7th) administration took place 24 hours before removal of blood and sacrifice. There was free access to food and water during the test. The food was withdrawn 24 hours before the removal of blood.
The serum from all 10 rats in a group was pooled for the analysis of the serum lipoproteins. The serum lipoproteins were separated with a preparative ultracentrifuge (KONTRON TGA 65, Rotor BECKMAN 50.4 Ti).
The following conditions specified by Koga, S., Horwitz, D. L., and Scanu, A. M., Journal of Lipid Research 10, 577 (1969) and Havel, R. J., Eder, H. A., and Bragdon, H. H., J. Clin. Invest. 34, 1345 (1955) were used to separate VLDL and LDL: 1. VLDL: Density<1.006, 40,000 rpm for 16 hours 2. LDL: Density 1.006-1.04, 40,000 rmp for 16 hours
Test kits from BOEHRINGER/Mannheim were used for the enzymatic determination of cholesterol and triglycerides in the separated lipoprotein fractions (cf. Siedel, J., Schlumberger, H., Klose, S., Ziegenhorn, J. and Wahlefeld, A. W., J. Clin. Chem. Clin. Biochem. 19, 838 (1981) and Wahlefeld, A. W., in: H. O. Bergmeier: Methoden der enzymatischen Analyse (Methods of Enzymatic Analysis), 2nd edition, Volume II, Verlag Chemie 1974, page 1878). The proteins were determined by the method of Lowry (Lowry, O. H., Roseborough, N. H., Farr, A. L. and Randell, R. J., J. Biol. Chem. 193, 265 (1951)).
Clofibrate was used as comparison product.

LDL receptor mRNA [1] = assay: Stimulation of LDL receptor mRNA expression in HepG2 cells (Northern blot); format: cell-based; conditions: Homo sapiens; HepG2, 2 × 10^-6 M, 16 h; control = 100%; ratio to β-actin mRNA
Experimental: 1a. In the human hepatocytoma cell line HepG2, which is recognized everywhere as model, the LDL receptor mRNA levels are increased by the compounds of the formula I (Table I).
(§1) The mRNA was prepared by the method described by Chomczynski, P. and Sacchi, N., in Anal. Biochem. 162, 156-159 (1987). In the case of organs (such as, for example, liver), the deep-frozen tissue was previously homogenized on dry ice in a mortar, and the mRNA was further concentrated by means of oligo dT by standard methods (cf. Sambrook, J., Fritsch, E. F. and Maniatis, T., Molecular Cloning, second edition, Cold Spring Harbor (1989); this collection of methods also includes descriptions of all the other relevant standard processes of molecular biology used here). 5 to […] of the dissolved mRNA obtained in this way were denatured by standard processes and fractionated on 1% horizontal agarose gels. The mRNA was transferred by capillary blotting to Hybond N membranes (Amersham). Used as specific hybridization probe was a partial LDL receptor cDNA clone and as internal standard was a plasmid which contained a β-actin gene. Both plasmids were labeled using a random primer kit from Amersham to a specific activity of 5×10^9 cpm/μg. Prehybridization, hybridization and washing of the filters took place by standard processes. The filters were subsequently exposed on Cronex 4 films (Dupont) in the presence of an intensifying screen at -70° C. overnight or for up to 14 days, and the hybridization signals were quantified from the intensity of blackening of the film using a commercially available laser densitometer. Subsequently, the quotient of the intensity of the LDL receptor band and of the actin band was determined as internal standard to correct for variations in yield.
The HepG2 cells were incubated in RPMI 1640 standard medium with fetal calf serum (final concentration 10%). Serum-free RPMI medium was used as induction control. Subsequently, the complete mRNA was prepared and, by means of the Northern blot technique, the relevant LDL receptor mRNA and β-actin mRNA levels were determined. The quotient of the LDL receptor mRNA signal and of the β-actin mRNA signal of the control (without added substance) was set equal to 100%, and the stimulation above this of the LDL receptor mRNA levels achieved under the influence of the compounds was expressed as percentage of the control.

LDL receptor mRNA [2] = assay: Stimulation of LDL receptor mRNA expression in rat livers (Northern blot); format: in vivo; conditions: rat liver, 30 mg/kg, 6 hours after administration; untreated control = 100%
Experimental: 1b. The LDL receptor mRNA levels are also raised in rat livers by compounds of the formula I within a few hours (Table II).
as §1
Liver tissue was removed and shock-frozen in liquid nitrogen.
Subsequently, the mRNA was isolated as described and, by means of the Northern blot technique, the relative LDL receptor mRNA levels were determined. The mRNA level of untreated control animals was set equal to 100%, and the stimulation of the LDL receptor mRNA was calculated as a percentage of the […]

[3] = Solubility in water of salts (and free bases); format: physicochemical; conditions: Table 2, salts of compounds I, temp. by No. [°C]: 1 25.5, 2 23.0, 3 22.4, 4 22.4, 5 22.0, 6 25.0, 7 25.5, 8 25.5, 9 25.5, 10 23.5, 11 23.5, 12 25.0, 13 24.0, 14 23.0, 15 22.0, 16 24.5, 17 22.5, 18 22.0; for solubility: water, read-out: Solubility in water, Concentration in % by wt.
[4] = read-out: Serum LDL cholesterol, % change from control at end of treatment
[5] = read-out: Serum LDL protein, % change from control at end of treatment
[6] = read-out: Serum VLDL cholesterol, % change from control at end of treatment
[7] = read-out: Serum VLDL protein, % change from control at end of treatment
[8] = read-out: Serum VLDL triglycerides, % change from control at end of treatment

Row | 1 part by mass dissolves in ... parts by H2O [3] | solubility [3] | Structure (SMILES) | change in vivo at 30 mg/kg (serum lipoproteins; [4]) | change in vivo at 30 mg/kg (serum lipoproteins; [5]) | change in vivo at 30 mg/kg (serum lipoproteins; [6]) | change in vivo at 30 mg/kg (serum lipoproteins; [7]) | change in vivo at 30 mg/kg (serum lipoproteins; [8]) | activity at 2 µM (LDL receptor mRNA [1]) | change in vivo at 3 mg/kg (serum lipoproteins; [4]) | change in vivo at 3 mg/kg (serum lipoproteins; [5]) | change in vivo at 3 mg/kg (serum lipoproteins; [6]) | change in vivo at 3 mg/kg (serum lipoproteins; [7]) | change in vivo at 3 mg/kg (serum lipoproteins; [8]) | change in vivo at 10 mg/kg (serum lipoproteins; [4]) | change in vivo at 10 mg/kg (serum lipoproteins; [5]) | change in vivo at 10 mg/kg (serum lipoproteins; [6]) | change in vivo at 10 mg/kg (serum lipoproteins; [7]) | change in vivo at 10 mg/kg (serum lipoproteins; [8]) | LDL receptor mRNA (LDL receptor mRNA [2])
1 | – | – | CCC(C)N(C(=O)c1cnc(N2CC(C)(C)NC2=O)nc1N)c1cccc(C(F)(F)F)c1 (stereo not drawn) [Example 8, 4-amino-2-(4,4-dimethyl-2-oxo-1-imidazolidinyl)-pyrimidine-5-carboxylic acid N-sec.-butyl-N-(3-trifluoromethylphenyl)amide hydrochloride] | -30% | -18% | -39% | -26% | -37% | 237% | – | – | – | – | – | – | – | – | – | – | –
2 | – | – | CC1(C)CN(c2ncc(C(=O)N(CC3CC3)c3cccc(C(F)(F)F)c3)c(N)n2)C(=O)N1 [Example 12, 4-amino-2-(4,4-dimethyl-2-oxo-1-imidazolidinyl)pyrimidine-5-carboxylic acid N-cyclopropylmethyl-N-(3-trifluoromethylphenyl)amide hydrochloride] | -66% | -30% | -80% | -51% | -29% | 170% | -26% | -5% | -6% | -8% | -4% | 46% | -18% | -63% | -34% | -51% | –
3 | – | – | CC1(C)CN(c2ncc(C(=O)N(c3cccc(C(F)(F)F)c3)C3CCCC3)c(N)n2)C(=O)N1 [Example 42] | -48% | -29% | -70% | -40% | -61% | 180% | -34% | -22% | -23% | -11% | -29% | -29% | -9% | -23% | -10% | -29% | 312%
4 | – | – | CC(C)N(C(=O)c1cnc(N2CC(C)(C)NC2=O)nc1N)c1cccc(C(F)(F)F)c1 [Example 4, 4-amino-2-(4,4-dimethyl-2-oxo-1-imidazolidinyl)pyrimidine-5-carboxylic acid N-isopropyl-N-(3-trifluoromethylphenyl)amide hydrochloride] | -68% | -53% | -70% | -13% | -29% | 205% | – | – | – | – | – | -39% | -33% | 2% | -18% | – | 221%
5 | 6.8 parts by H2 O | 128 mg/mL | CCN(C(=O)c1cnc(N2CC(C)NC2=O)nc1N)c1cccc(C(F)(F)F)c1 (stereo not drawn) [Example 58, 4-amino-2-(4-methyl-2-oxo-1-imidazolidinyl)pyrimidine-5-carboxylic acid N-ethyl-N-(3-trifluoromethylphenyl)amide hydrochloride] | 46% | -25% | -59% | -22% | -40% | – | – | – | – | – | – | – | – | – | – | – | –
6 | 19.8 parts by H2 O | 48.1 mg/mL | CN(C(=O)c1cnc(N2CCNC2=O)nc1N)c1cccc(C(F)(F)F)c1 [Example 64, 4-amino-2-(2-oxo-1-imidazolidinyl)pyrimidine-5-carboxylic acid N-methyl-N-(3-trifluoromethylphenyl)amide hydrochloride] | -20% | -10% | -18% | -28% | – | – | – | – | – | – | – | – | – | – | – | – | –
